Square brackets hold non-standard residues; d marks the D form. Peptide text beside a SMILES is read from it. Nle = CCCC[C@H](N)C(=O)O

Assay [1] has as its system WNV-Cp. As to the kind of experiment: Western blotting of WNV-Cp protein levels in transfected 293T cells. It is filed as cell-based. How it is done: 293T cells were plated onto 60-mm plates at a density of 3×10^5 cells, cultured, and transfected with pcDAN3-HA/WNV-Cp alone, and pcDAN3-HA/WNV-Cp and pCMV-tag2B-Jab1 together using an Effectene transfection reagent (Qiagen). In the case of the co-transfection, to equalize the levels of expressed DNA, 12 hrs after transfection, cells were divided into two plates by pipetting. 20 hrs after transfection, the cells were treated for 4 hrs with 20 μM/ml of the proteasome inhibitor LLnL (N-acetyl-L-luecinyl-norleucinal, Sigma). Then, the cells were washed with 1×PBS and collected. Samples of 50 μg protein were loaded onto a SDS-PAGE gel and analyzed by Western blotting using an anti-HA antibody (Santa Cruz) for the detection of WNV-Cp expression and an anti-Flag M2 antibody (Sigma) for the detection of Jab1 expression. Actin was used as a loading control.
A general note: A western blot detects proteins with antibodies after separation by electrophoresis.

The next assay relates to caspase-3 and caspase-9. As to the kind of experiment: Caspase activity assay (colorimetric) in transfected 293T cells. It is filed as cell-based, human. Conditions: 293T cells co-expressing WNV-Cp and Jab1 versus WNV-Cp alone, 24 hrs after transfection. As to the method: 293T cells were plated onto 60-mm plates at a density of 3×10^5 cells, cultured, and transfected with pcDNA3-HA, pcDNA3-HA/Cp, pCMV-tag2B-Jab1, both pcDNA3-HA/Cp and pCMV-tag2B-Jab1, and pcDNA3-Bax, respectively. After 24 hrs, the cells were washed with 1×PBS twice, transferred to 1.5-ml tubes, and lysed with 20 μl of buffer C (25% glycerol, 0.42 M NaCl, 1.5 M MgCl2, 0.2 mM EDTA, 20 mM HEPES, 1 mM DTT, 0.5 mM PMSF, pH7.9). After being incubated for 10 min on ice, the lysed cells were centrifuged. The total protein concentration in each supernatant was measured, and samples of zero to 300 μg of proteins were placed into a 96-well plate. To the 96-well plate, 50 μl of 2× reaction buffer and 5 μl of 4 mM DNA-conjugated substrate, provided in a caspase colorimetric substrate set II plus kit (Biovision), were added. After a 1-hr incubation at 37° C., the activity of caspase-3 and caspase-9 was measured at 410 nm using a microtiter plate reader. The results are given in the A panel of FIG. 8. In cells expressing WNV-Cp, the activity of capase-3 and caspase-9 was similar to that in cells expressing Bax, a member of the pro-apoptotic Bcl-2 family. […] The expression of the proteins used in this caspase activity assay was detected by Western blotting, and the results are given in the B panel of FIG. 8.

Another assay relates to p53. As to the kind of experiment: Western blotting of endogenous p53 expression in transfected U2OS cells. The format is cell-based, human. The conditions noted are these: U2OS cells transfected with 1, 3 and 5 μg Flag construct, 48 hrs. As to the method:
U2OS cells were transfected with Flag/mdm2 (control) and Flag/Jab1 with various concentrations of 1, 3 and 5 μg using a Lipofectamin/plus reagent (Invitrogen). After 48 hrs, cell lysates were collected, and total protein concentrations were measured by a BSA (PIERCE) method. Samples of 100 μg/ml protein were separated on a 10% SDS-PAGE gel and transferred to a nitrocellulose membrane. The blot was blocked with 5% skim milk for 30 min, and treated with a rabbit anti-HA antibody (Santa Cruz) and a mouse anti-Flag antibody (Sigma) to examine expression levels of p53 according to increased expression of mdm2 and Jab1.

Assay [2] has as its target T1, WNV-Cp (West Nile virus, UniProt Q9Q6P4).
T1 construct: capsid (Cp) protein of West Nile virus (WNV); expressed in transfected cells; host or cells: 293T
T1 sequence (Q9Q6P4 2-105 limits assumed): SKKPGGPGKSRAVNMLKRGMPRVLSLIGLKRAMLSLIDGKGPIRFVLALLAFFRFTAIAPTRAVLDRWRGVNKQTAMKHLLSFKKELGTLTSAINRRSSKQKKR
Put plainly: Immunoprecipitation of Jab1 with WNV-Cp in cotransfected 293T cells. It is filed as binding. The conditions noted are these: 293T cells cotransfected with Flag-Jab1 and HA-WNV-Cp, IP with anti-HA antibody. How it is done: Separately, immunoprecipitation (IP) was performed to confirm the interaction between WNV-Cp and Jab1. 293T cells were cotransfected with Flag-Jab1 and HA-WNV-Cp plasmids, and the whole cell lysates were immunoprecipitated with an anti-HA mouse antibody. As a control, IP was carried out with an anti-Myc antibody. Immunoprecipited proteins were run on a 12% SDS-PAGE gel, transferred to a nitrocellulose membrane, and detected with an anti-Flag mouse antibody to visualize immunoprecipitated Jab1 along with WNV-Cp (FIG. 7).

The test system of assay [3] is WNV-Cp. As to the kind of experiment: Immunofluorescence (confocal) localisation of WNV-Cp in cotransfected 293T, U2OS and HeLa cells. Conditions: U2OS and HeLa cells cotransfected with WNV-Cp and Jab1, 24 hrs. The format is cell-based, West Nile virus. The text has this:
To evaluate the effect of Jab1, identified to interact with WNV-Cp, on the intracellular location of WNV-cp, 293T, U2OS and HeLa cells were cotransfected with the WNV-Cp protein and Jab1. 293T, U2OS and HeLa cells were cotransfected with HA-tagged pcDNA-HA/WNV-Cp and Flag-tagged pCMV Tag2B-Jab1. After 24 hrs, the cells were stained using an anti-HA antibody (green) and an anti-Flag antibody (red) and observed under a confocal microscope.

Assay [4] concerns SH-SY5Y cells expressing WNV-Cp. As to the kind of experiment: Annexin V-PE staining / FACS apoptosis rate in cells transfected with WNV-Cp gene. The conditions noted are these: 200 nM inhibitor added after 6 hrs, measured after 24 hrs, untreated WNV-Cp cells 69.6%. It is filed as cell-based, human. The text has this: Human neuroblastoma SH-SY5Y cells were transfected with a WNV-Cp gene. To determine an apoptosis rate in cells expressing the capsid protein of WNV, the cells were stained with annexin V-PE and subjected to FACS analysis (BioRAD, Win BRYTE). As a result, the cells were fractionated into four fractions: A, B, C and D. The A fraction indicates a cell population that was not injected with the WNV-Cp gene and stained with annexin V-PE.
Separately, SH-SY5Y cells were transfected with a WNV-Cp gene. After 6 hrs, the cells were treated with 200 nM of a PI3K inhibitor, wortmanin (Sigma), and 5 μM and 50 μM of an Akt inhibitor, calbiochem (CN Biosciences). After 24 hrs, the cells were stained with annexin V-PE that is capable of detecting a step of apoptosis and subjected to FACS analysis (BioRAD, WinBryte) for measuring an apoptosis rate. […] The transfected cells were analyzed on a FL3 channel (green fluorescence) and annexin V-PE binding was analyzed on a FL2 channel. An apoptosis rate in capsid-expressing cells was calculated according to Reaction 1, below. Cells transfected with a pEGFP-N1 plasmid were used as a negative control, and cells transfected with a C2-Cp plasmid and not treated with the inhibitor were used as a positive control. [Annexin V-PE-positive cells/(all cells expressing C2−Cp)]×100 [Reaction 1]

p53, sequence (P04637 whole entry): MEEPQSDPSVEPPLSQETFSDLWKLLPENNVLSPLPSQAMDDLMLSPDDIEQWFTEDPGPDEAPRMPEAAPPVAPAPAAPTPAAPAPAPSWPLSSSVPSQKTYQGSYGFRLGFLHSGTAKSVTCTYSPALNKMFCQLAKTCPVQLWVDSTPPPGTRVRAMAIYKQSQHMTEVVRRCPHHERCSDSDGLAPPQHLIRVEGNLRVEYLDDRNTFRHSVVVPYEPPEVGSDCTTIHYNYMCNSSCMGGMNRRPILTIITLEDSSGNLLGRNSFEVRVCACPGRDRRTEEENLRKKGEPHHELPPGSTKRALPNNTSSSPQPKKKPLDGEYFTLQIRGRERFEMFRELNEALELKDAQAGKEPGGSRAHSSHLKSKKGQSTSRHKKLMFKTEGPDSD

Consider `CCCC[C@@H](C=O)NC(=O)[C@H](CC(C)C)NC(=O)[C@H](CC(C)C)NC(C)=O` [LLnL, N-acetyl-L-luecinyl-norleucinal, reference compound] (Ac-Leu-Leu-[Nle]-aldehyde), for which, in the assay on WNV-Cp [1] (293T cells cotransfected with WNV-Cp and Jab1, treated for 4 hrs with 20 μM/ml LLnL), the “protein levels of WNV-Cp” value was “increased”.

Turning to “Jab1: Jun-activation binding protein 1, expressed in cells from plasmid pCMV-tag2B-Jab1 (Flag-tagged); amino acid sequence SEQ ID No. 2”, the “caspase activity (caspase-3 and caspase-9)” value with caspase-3 and caspase-9 is on record as “remarkably reduced”. The “protein levels of WNV-Cp” value in the assay on WNV-Cp [1] (293T cells, co-expression with Jab1 compared to single expression of WNV-Cp) is on record as “large decrease”. Besides, the “expression of p53” value in the assay on p53 was “remarkably decreased”. Besides, in the assay with WNV-Cp [2], the “interaction with WNV-Cp (co-immunoprecipitation)” value is listed as “co-immunoprecipitated with WNV-Cp”. For the same compound, the “intracellular location of WNV-Cp” value in the assay on WNV-Cp [3] is on record as “appeared in the cytoplasm”.

Turning to `COC[C@H]1OC(=O)c2coc3c2[C@@]1(C)C1=C(C3=O)[C@@H]2CCC(=O)[C@@]2(C)C[C@H]1OC(C)=O` [wortmanin], in assay [4], the apoptosis rate amounted to 22.8%.

For the origin of these results see US8226944B2, “Composition for treating virus infection disease comprising Jab1” (priority 2004, dated 2012).
